# According to publication PMC9930781, “Design, synthesis, docking, and anticancer evaluations of new thiazolo[3,2-a] pyrimidines as topoisomerase II inhibitors” (Journal of Enzyme Inhibition and Medicinal Chemistry, 2023):
# Where two headings read alike, the source gives them in different places.
# What was measured:
# A549 cells [1] = assay: Cell cycle analysis by flow cytometry; assay type: cell-based, human; conditions: A549, 4c at IC50 (2 nM), 24 h (b61 also says 48 h)
# Procedure: Briefly, a six-well plate containing lung cancer (A549) cells was seeded with 1 × 10^5 cells per well and then incubated for 24 h. 2 nM of compound 4c or 0.1% DMSO was applied to the cells for 24 h. Following that, cells were gathered and fixed in ice-cold 70% ethanol at 4 °C for 12 h. The cells were then rinsed with cold Phosphate Buffer Saline (PBS) and incubated for 30 min at 37 °C in 0.5 ml of PBS after the ethanol was removed. Propidium iodide was used to stain the cells for 30 min in the dark. DNA content was determined using a flow cytometer.
# The cell cycle is required for cell division and replication. The cell cycle was divided into four distinct phases: G1 phase ([…]), S phase (synthesis), G2 phase (interphase), and M phase (mitosis). The G1 phase, also known as the post-mitotic pre-synthesis phase, is distinguished by direct cell division. DNA replication identifies the S phase. The G2 phase, premitotic, or post-synthetic phase, which can be considered the actual division, is when the cell prepares to split into two cells. Finally, the doubled DNA organised in chromosomes is separated during the M- or mitosis-phase division. Many anticancer drugs cause apoptosis, cell cycle arrest, or a combination of both as part of their cytotoxic action.
# A549 cells [2] = assay: Annexin V-FITC apoptosis assay; assay type: cell-based, human
# Procedure: Each well of a 6-well plate received 1 × 10^5 conc. lung cancer (A549) cells that were then incubated for 24 h. The cells were then exposed for 24 h to 2 nM compound 4c or (0.1%) DMSO before being harvested, washed with PBS, and stained for 15 min at room temperature in the dark with annexin V-FITC and PI in binding buffer ([…] at pH 7.4). The flow cytometer was then used to examine the cells.
# Apoptotic cell death is a method by which an anticancer agent destroys tumour cells. Therefore, compound 4c was additionally estimated through an Annexin V-FITC experiment utilising A549 cells to evaluate if the cytotoxic action of the novel compound is related to necrosis or apoptosis.
# [3] = tested on: A549 non-small cell lung cancer (NSCLC) cell line; assay: MTT cytotoxicity assay, A549
# Procedure: (§1) The MTT test was used to evaluate the inhibitory effects of the substances on cell proliferation in the aforementioned cell lines. This colorimetric assay targets the mitochondrial succinate dehydrogenase of living cells to change yellow tetrazolium bromide (MTT) to a purple formazan derivative. […] Then, the cells were incubated for 24 h and exposed to various chemical concentrations. 20 μL of a 5 mg/mL MTT solution was applied after a 24-h drug treatment period and incubated for 4 h. To dissolve the produced purple formazan, each well receives 100 μL of dimethyl sulfoxide (DMSO). […] The formula for calculating the relative percentage of cell viability was (A570 of treated samples/A570 of the untreated sample) × 100.
# [4] = tested on: A498 renal cell carcinoma cell line; assay: MTT cytotoxicity assay, A498
# Procedure: as §1
# human topoisomerase II = human topoisomerase II (Homo sapiens, UniProt P11388); assay: DNA Topo II inhibition (kDNA decatenation) assay; assay type: biochemical
# Sequence of human topoisomerase II (P11388 whole entry): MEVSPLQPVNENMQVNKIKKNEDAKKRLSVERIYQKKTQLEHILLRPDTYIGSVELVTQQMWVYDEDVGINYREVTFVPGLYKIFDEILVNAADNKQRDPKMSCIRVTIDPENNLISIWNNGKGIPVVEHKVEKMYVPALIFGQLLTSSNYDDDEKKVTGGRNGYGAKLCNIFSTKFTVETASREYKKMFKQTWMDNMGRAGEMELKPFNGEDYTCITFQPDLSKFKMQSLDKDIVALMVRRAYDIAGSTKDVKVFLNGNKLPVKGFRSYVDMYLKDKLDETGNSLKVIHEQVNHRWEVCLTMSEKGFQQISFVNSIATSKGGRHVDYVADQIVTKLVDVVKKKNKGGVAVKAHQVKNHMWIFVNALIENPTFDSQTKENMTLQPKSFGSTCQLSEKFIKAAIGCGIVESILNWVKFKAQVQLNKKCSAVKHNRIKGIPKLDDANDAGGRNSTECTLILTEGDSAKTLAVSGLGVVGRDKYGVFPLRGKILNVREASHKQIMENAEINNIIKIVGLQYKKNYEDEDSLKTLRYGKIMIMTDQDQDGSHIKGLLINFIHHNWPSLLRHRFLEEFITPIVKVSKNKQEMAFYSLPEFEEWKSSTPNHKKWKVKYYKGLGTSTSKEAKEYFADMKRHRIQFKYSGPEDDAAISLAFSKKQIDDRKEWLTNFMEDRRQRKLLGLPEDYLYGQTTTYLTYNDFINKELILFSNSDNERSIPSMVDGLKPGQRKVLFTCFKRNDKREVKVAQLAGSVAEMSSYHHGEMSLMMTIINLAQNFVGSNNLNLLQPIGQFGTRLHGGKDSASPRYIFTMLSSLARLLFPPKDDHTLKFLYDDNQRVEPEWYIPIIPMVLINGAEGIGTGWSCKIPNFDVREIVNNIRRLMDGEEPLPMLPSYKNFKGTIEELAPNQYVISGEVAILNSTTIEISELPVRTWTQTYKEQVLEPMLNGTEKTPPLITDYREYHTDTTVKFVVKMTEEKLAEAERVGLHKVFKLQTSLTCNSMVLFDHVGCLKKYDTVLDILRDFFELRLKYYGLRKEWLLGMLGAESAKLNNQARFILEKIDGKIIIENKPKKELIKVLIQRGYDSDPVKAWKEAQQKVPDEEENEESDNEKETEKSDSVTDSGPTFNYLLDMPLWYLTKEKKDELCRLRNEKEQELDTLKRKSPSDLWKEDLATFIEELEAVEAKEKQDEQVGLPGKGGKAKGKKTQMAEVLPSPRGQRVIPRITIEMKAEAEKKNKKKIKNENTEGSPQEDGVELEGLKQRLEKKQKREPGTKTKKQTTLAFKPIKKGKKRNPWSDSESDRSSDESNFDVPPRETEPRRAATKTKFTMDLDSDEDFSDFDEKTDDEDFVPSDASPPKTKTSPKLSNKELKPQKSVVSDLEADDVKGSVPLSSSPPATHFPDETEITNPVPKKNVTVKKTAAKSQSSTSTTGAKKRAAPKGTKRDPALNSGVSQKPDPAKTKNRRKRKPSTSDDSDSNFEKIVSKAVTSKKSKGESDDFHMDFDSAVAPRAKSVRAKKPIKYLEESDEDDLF
# Procedure: The ATP-dependent decatenation of kinetoplast DNA (kDNA) obtained from Crithidia fasciculata, which consists of a network of numerous minicircles (2.3 Kb) and some maxicircles, was used to measure topoisomerase II inhibition. Reactions took place in 20 μL and comprised topoisomerase II, 200–300 ng of kDNA, and 120 mM KCl with 50 mM Tris-HCl, pH 8, 10 mM MgCl2, 0.5 mM ATP, and 0.5 mM dithiothreitol. In preliminary tests, the quantity of topoisomerase II (5 units) was changed to decatenate almost 100% of the kDNA under these assay circumstances. […] The products in the reaction mixture were separated by a 1% agarose gel after the reaction was complete and then could be seen after being stained with ethidium bromide (0.2 μg/mL). The gels were run at 100 V for about 40 min and visualised under UV transillumination.
# This assay is based on the fact that human Topo II can decatenate interlinked double-stranded DNA molecules.
# [5] = In vitro cytotoxicity on WI-38 human cell line (MTT); assay type: cell-based; conditions: WI-38 normal fibroblast cells, WI-38 normal fibroblasts
# Procedure: Cell line cells were provided from the American Type Culture Collection cultured in DMEM (Invitrogen/Life Technologies) with 10% FBS (Hyclone), 1% penicillin-streptomycin, and 10 μg/mL insulin (Sigma). The remainder of the chemicals and reagents were provided by either Sigma or Invitrogen. Prior to the MTT assay, plated cells were incubated for 24 h in a 96-well plate with 100 μl of the test substance per well and 100 μl of complete growth medium (cell density 1.2–1.8 × 10,000 cells/well). Cultures were transferred from the incubator and placed in a sterile work area or laminar flow hood. Then, 10% of the culture medium volume of reconstituted MTT was added, and the cultures were incubated for an additional 2 h. After that, cultures were taken out of the incubator, and the formazan crystals were dissolved using MTT solubilising solution [M-8910] in an amount equal to the volume of the original culture medium. The absorbance at 570 nm was measured. Finally, the IC50 of the test compound compared to the reference was calculated using the GraphPad Prism software.
# [6] = tested on: MCF7 breast cancer cell line; assay: MTT cytotoxicity assay, MCF7; conditions: SI = IC50 normal cell (WI-38)/IC50 cancer cell (MCF7)
# Procedure: as §1
# The newly prepared compounds were screened against three cancer cell lines: namely, breast cancer cell line MCF7, non-small cell lung cancer (NSCLC) cell line A549, and renal cancer cell line A498, using the MTT colorimetric assay.
compound,measurement,setting,value
"CCOC(=O)C1=C(C)N=C2SC=C(NC(=O)c3c(Cl)cc(Cl)cc3Cl)N2C1c1ccc(OC)cc1OC (stereo not drawn) [Compound 4c, Ethyl 5–(2,4-dimethoxyphenyl)-7-methyl-3–(2,4,6-trichlorobenzamido)-5H-thiazolo[3,2-a]pyrimidine-6-carboxylate]",%G2/M,A549 cells [1]; control 13.97,4.04%
same,%S,A549 cells [1]; control 29.64,26.89%
same,%G0–G1,A549 cells [1]; control 56.39,69.07%
same,elevation in the total apoptosis versus control,A549 cells [2]; A549,26.47 fold
same,increase in early apoptotic cells versus control,A549 cells [2]; A549,61.92 fold
same,increase in late apoptotic cells versus control,A549 cells [2]; A549,97 fold
same,increase in the percentage of necrosis versus control,A549 cells [2]; A549,2.5 fold
same,late apoptotic cells,"A549 cells [2]; A549, 4c at IC50 (2 nM), control 0.13%",12.61%
same,early apoptotic cells,"A549 cells [2]; A549, 4c at IC50 (2 nM), control […]",24.15%
same,IC50,"[3]; Homo sapiens, A549, 24 h, read-out: Cytotoxicity IC50 A549± SD, MTT, A549, 24 h treatment, mean ± SD of two independent assays",2 nM
same,Selectivity index (SI) A549,[3]; SI = IC50 normal cell (WI-38)/IC50 cancer cell (A549),7770
same,IC50,"[3]; read-out: Cytotoxicity IC50 A549± SD, MTT, A549, 24 h treatment, mean ± SD of two independent assays",1 nM
same,IC50,"[4]; Homo sapiens, A498, 24 h, read-out: Cytotoxicity IC50 A498± SD, MTT, A498, 24 h treatment, mean ± SD of two independent assays",1 nM
same,Selectivity index (SI) A498,[4]; SI = IC50 normal cell (WI-38)/IC50 cancer cell (A498),15540
same,IC50,"[4]; read-out: Cytotoxicity IC50 A498± SD, MTT, A498, 24 h treatment, mean ± SD of two independent assays",2 nM
same,%inh TOPO II,human topoisomerase II; conc 0.1 (μM),44%
same,%inh TOPO II,human topoisomerase II; conc 1 (μM),60%
same,%inh TOPO II,human topoisomerase II; conc 10 (μM),79%
same,%inh TOPO II,human topoisomerase II; conc 100 (μM),92%
same,IC50,"human topoisomerase II; kDNA decatenation, four concentrations 0.1-100 µM, mean ± SD of two independent assays",230 ± 10 nM
same,Topo II potency relative to Doxorubicin (IC50 ratio),human topoisomerase II; versus IC50 of Doxorubicin,3.6 fold
same,Topo II potency relative to Etoposide (IC50 ratio),human topoisomerase II; versus IC50 of Etoposide,1.4 fold
same,IC50 at 24 h,[5],15500 ± 840 nM
same,Selectivity index (SI) MCF7,[6],7770
